Consider five compounds from the kinase profiling compilation of Christmann-Franck et al. (2016).

The structures appear in SMILES notation.

Assay [1] addresses TTK (human) (UniProt P33981). The assay is described as follows: SelectScreen, TR FRET. (TR-FRET usually uses a lanthanide donor and a delayed reading to cut background.)
Assay [2] has as its target SLK (human) (UniProt Q9H2G2). The assay is described as follows: KINOMEscan competition binding. The note with it: compound 10.0 µM.
Assay [3] concerns the target RPS6KA2 KD2 (human) (UniProt Q15349). The assay is described as follows: KINOMEscan competition binding. The conditions noted are these: compound 10.0 µM.
Assay [4] addresses DCLK2 (human) (UniProt Q8N568). The assay is described as follows: KINOMEscan competition binding. The note with it: compound 10.0 µM.
Assay [5] concerns the target PRKD3 (human) (UniProt O94806). The assay is described as follows: KINOMEscan competition binding. The note with it: compound 10.0 µM.
Assay [6] deals with JAK1 JH2 pseudokinase (human) (UniProt P23458). The assay is described as follows: KINOMEscan competition binding. The conditions noted are these: compound 10.0 µM.
Assay [7] addresses DAPK3 (human) (UniProt O43293). The assay is described as follows: KINOMEscan competition binding. The note with it: compound 10.0 µM.
Assay [8] addresses DCLK1 (human) (UniProt O15075). The assay is described as follows: KINOMEscan competition binding. The note with it: compound 10.0 µM.
Assay [9] concerns the target PTK2 (human) (UniProt Q05397). The assay is described as follows: KINOMEscan competition binding. The conditions noted are these: compound 10.0 µM.
Assay [10] concerns the target IGF1R (human) (UniProt P08069). The assay is described as follows: KINOMEscan competition binding. The note with it: compound 10.0 µM.
Assay [11] has as its target STK33 (human) (UniProt Q9BYT3). The assay is described as follows: KINOMEscan competition binding. The note with it: compound 10.0 µM.
In assay [12] the target is INSRR (human) (UniProt P14616). The assay is described as follows: KINOMEscan competition binding. The conditions noted are these: compound 10.0 µM.
For assay [13], the target named is CAMK1D (human) (UniProt Q8IU85). The assay is described as follows: KINOMEscan competition binding. The note with it: compound 10.0 µM.
Assay [14] deals with ALK (human) (UniProt Q9UM73). The assay is described as follows: KINOMEscan competition binding. The conditions noted are these: compound 10.0 µM.
The target of assay [15] is RPS6KA1 KD2 (human) (UniProt Q15418). The assay is described as follows: KINOMEscan competition binding. The note with it: compound 10.0 µM.
In assay [16] the target is CLK2 (human) (UniProt P49760). The assay is described as follows: KINOMEscan competition binding. The conditions noted are these: compound 10.0 µM.
In assay [17] the target is RPS6KA6 KD2 (human) (UniProt Q9UK32). The assay is described as follows: KINOMEscan competition binding. The note with it: compound 10.0 µM.
In assay [18] the target is PLK1 (human) (UniProt P53350). The assay is described as follows: KINOMEscan competition binding. The conditions noted are these: compound 10.0 µM.
The target in assay [19] is MYLK (human) (UniProt Q15746). The assay is described as follows: KINOMEscan competition binding. The conditions noted are these: compound 10.0 µM.
Assay [20] addresses FER (human) (UniProt P16591). The assay is described as follows: KINOMEscan competition binding. The note with it: compound 10.0 µM.
The target of assay [21] is CLK1 (human) (UniProt P49759). The assay is described as follows: KINOMEscan competition binding. The conditions noted are these: compound 10.0 µM.
The target of assay [22] is STK10 (human) (UniProt O94804). The assay is described as follows: KINOMEscan competition binding. The conditions noted are these: compound 10.0 µM.
The target in assay [23] is PLK3 (human) (UniProt Q9H4B4). The assay is described as follows: KINOMEscan competition binding. The note with it: compound 10.0 µM.
Assay [24] has as its target DAPK1 (human) (UniProt P53355). The assay is described as follows: KINOMEscan competition binding. The note with it: compound 10.0 µM.
The target of assay [25] is TTK (human) (UniProt P33981). The assay is described as follows: KINOMEscan competition binding. The conditions noted are these: for kinase still bound, per cent of control: compound 10.0 µM.
Assay [26] has as its target CAMKK2 (human) (UniProt Q96RR4). The assay is described as follows: KINOMEscan competition binding. The conditions noted are these: compound 10.0 µM.
For assay [27], the target named is PTK2B (human) (UniProt Q14289). The assay is described as follows: KINOMEscan competition binding. The note with it: compound 10.0 µM.
Assay [28] has as its target CAMK2G (human) (UniProt Q13555). The assay is described as follows: KINOMEscan competition binding. The conditions noted are these: compound 10.0 µM.
Assay [29] concerns the target CAMK2A (human) (UniProt Q9UQM7). The assay is described as follows: KINOMEscan competition binding. The conditions noted are these: compound 10.0 µM.
The target in assay [30] is GAK (human) (UniProt O14976). The assay is described as follows: KINOMEscan competition binding. The note with it: compound 10.0 µM.
For assay [31], the target named is CAMK2D (human) (UniProt Q13557). The assay is described as follows: KINOMEscan competition binding. The conditions noted are these: compound 10.0 µM.
Assay [32] addresses PIK3C2B (human) (UniProt O00750). The assay is described as follows: KINOMEscan competition binding. The note with it: compound 10.0 µM.
Assay [33] relates to EGFR (human), P00533 [747-751 del / S ins]. The assay is described as follows: KINOMEscan competition binding. The note with it: compound 10.0 µM.
Assay [34] has as its system EGFR (human), P00533 [G719C; 746-750 del]. The assay is described as follows: KINOMEscan competition binding. The conditions noted are these: compound 10.0 µM.
The subject of assay [35] is EGFR (human), P00533 [L861Q]. The assay is described as follows: KINOMEscan competition binding. The conditions noted are these: compound 10.0 µM.
The target in assay [36] is PLK4 (human) (UniProt O00444). The assay is described as follows: KINOMEscan competition binding. The conditions noted are these: compound 10.0 µM.
The subject of assay [37] is EGFR (human), P00533 [A750P; 747-749 del]. The assay is described as follows: KINOMEscan competition binding. The conditions noted are these: compound 10.0 µM.
The target of assay [38] is ULK2 (human) (UniProt Q8IYT8). The assay is described as follows: KINOMEscan competition binding. The conditions noted are these: compound 10.0 µM.
Assay [39] deals with EGFR (human), P00533 [P753S; 747-752 del]. The assay is described as follows: KINOMEscan competition binding. The conditions noted are these: compound 10.0 µM.
In assay [40] the target is FLT3 (human) (UniProt P36888). The assay is described as follows: KINOMEscan competition binding. The conditions noted are these: compound 10.0 µM.
Assay [41] concerns FLT3 (human), P36888 [K663Q]. The assay is described as follows: KINOMEscan competition binding. The conditions noted are these: compound 10.0 µM.
For assay [42], the target named is PIP5K1A (human) (UniProt Q99755). The assay is described as follows: KINOMEscan competition binding. The conditions noted are these: compound 10.0 µM.
Assay [43] concerns the target PTK6 (human) (UniProt Q13882). The assay is described as follows: KINOMEscan competition binding. The conditions noted are these: compound 10.0 µM.
Assay [44] concerns FLT3 (human), P36888 [D835H]. The assay is described as follows: KINOMEscan competition binding. The note with it: compound 10.0 µM.
Assay [45] concerns the target TNK2 (human) (UniProt Q07912). The assay is described as follows: KINOMEscan competition binding. The note with it: compound 10.0 µM.
Assay [46] deals with FLT3 (human), P36888 [ITD]. The assay is described as follows: KINOMEscan competition binding. The note with it: compound 10.0 µM.
For assay [47], the system named is FLT3 (human), P36888 [N841I]. The assay is described as follows: KINOMEscan competition binding. The note with it: compound 10.0 µM.
Assay [48] has as its target MAPK7 (human) (UniProt Q13164). The assay is described as follows: KINOMEscan competition binding. The note with it: compound 10.0 µM.
Assay [49] relates to FLT3 (human), P36888 [D835Y]. The assay is described as follows: KINOMEscan competition binding. The conditions noted are these: compound 10.0 µM.
Assay [50] has as its system ABL1 (human), P00519 [F317I]. The assay is described as follows: KINOMEscan competition binding. The note with it: compound 10.0 µM.
For assay [51], the target named is MYLK4 (human) (UniProt Q86YV6). The assay is described as follows: KINOMEscan competition binding. The conditions noted are these: compound 10.0 µM.
The target of assay [52] is DCLK3 (human) (UniProt Q9C098). The assay is described as follows: KINOMEscan competition binding. The conditions noted are these: compound 10.0 µM.
Assay [53] has as its target CDK11A (human) (UniProt Q9UQ88). The assay is described as follows: KINOMEscan competition binding. The note with it: compound 10.0 µM.

TTK (human), sequence (P33981 whole entry, looked up): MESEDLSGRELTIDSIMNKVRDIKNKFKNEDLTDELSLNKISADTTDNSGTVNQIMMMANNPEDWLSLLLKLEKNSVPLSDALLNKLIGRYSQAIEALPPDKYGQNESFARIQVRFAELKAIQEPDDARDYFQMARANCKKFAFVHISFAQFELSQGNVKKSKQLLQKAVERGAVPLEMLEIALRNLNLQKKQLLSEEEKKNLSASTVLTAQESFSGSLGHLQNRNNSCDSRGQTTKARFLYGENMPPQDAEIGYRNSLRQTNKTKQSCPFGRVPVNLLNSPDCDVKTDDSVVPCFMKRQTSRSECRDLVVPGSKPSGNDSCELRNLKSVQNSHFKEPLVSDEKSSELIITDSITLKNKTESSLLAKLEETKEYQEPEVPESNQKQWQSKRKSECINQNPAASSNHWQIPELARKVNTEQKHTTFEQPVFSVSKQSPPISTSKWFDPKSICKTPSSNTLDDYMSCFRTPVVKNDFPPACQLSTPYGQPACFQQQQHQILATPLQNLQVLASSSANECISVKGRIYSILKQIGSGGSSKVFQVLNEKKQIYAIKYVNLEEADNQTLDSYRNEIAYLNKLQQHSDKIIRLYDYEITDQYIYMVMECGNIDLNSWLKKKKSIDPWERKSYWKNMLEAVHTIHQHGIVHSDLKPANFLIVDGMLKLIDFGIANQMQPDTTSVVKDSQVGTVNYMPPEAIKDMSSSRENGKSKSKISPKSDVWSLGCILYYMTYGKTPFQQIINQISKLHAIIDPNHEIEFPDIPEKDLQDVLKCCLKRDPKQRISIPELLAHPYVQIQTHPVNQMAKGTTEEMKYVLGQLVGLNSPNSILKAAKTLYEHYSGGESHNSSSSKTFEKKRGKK
CAMKK2 (human), sequence (Q96RR4 whole entry, looked up): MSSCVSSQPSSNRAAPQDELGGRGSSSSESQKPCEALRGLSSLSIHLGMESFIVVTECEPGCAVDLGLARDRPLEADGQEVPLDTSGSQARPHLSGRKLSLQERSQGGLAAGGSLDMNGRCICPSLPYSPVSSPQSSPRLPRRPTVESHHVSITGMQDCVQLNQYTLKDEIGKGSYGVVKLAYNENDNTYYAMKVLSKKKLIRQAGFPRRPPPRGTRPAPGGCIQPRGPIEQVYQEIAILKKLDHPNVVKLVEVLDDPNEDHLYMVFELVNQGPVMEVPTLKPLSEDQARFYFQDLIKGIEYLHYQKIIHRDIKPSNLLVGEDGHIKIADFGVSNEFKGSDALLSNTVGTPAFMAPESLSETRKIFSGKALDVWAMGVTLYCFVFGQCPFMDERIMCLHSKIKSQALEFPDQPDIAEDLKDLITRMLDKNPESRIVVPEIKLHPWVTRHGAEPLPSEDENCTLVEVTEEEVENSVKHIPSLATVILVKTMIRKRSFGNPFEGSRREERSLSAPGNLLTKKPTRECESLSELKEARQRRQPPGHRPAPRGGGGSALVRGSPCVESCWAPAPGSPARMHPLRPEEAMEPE
DCLK1 (human), sequence (O15075 whole entry, looked up): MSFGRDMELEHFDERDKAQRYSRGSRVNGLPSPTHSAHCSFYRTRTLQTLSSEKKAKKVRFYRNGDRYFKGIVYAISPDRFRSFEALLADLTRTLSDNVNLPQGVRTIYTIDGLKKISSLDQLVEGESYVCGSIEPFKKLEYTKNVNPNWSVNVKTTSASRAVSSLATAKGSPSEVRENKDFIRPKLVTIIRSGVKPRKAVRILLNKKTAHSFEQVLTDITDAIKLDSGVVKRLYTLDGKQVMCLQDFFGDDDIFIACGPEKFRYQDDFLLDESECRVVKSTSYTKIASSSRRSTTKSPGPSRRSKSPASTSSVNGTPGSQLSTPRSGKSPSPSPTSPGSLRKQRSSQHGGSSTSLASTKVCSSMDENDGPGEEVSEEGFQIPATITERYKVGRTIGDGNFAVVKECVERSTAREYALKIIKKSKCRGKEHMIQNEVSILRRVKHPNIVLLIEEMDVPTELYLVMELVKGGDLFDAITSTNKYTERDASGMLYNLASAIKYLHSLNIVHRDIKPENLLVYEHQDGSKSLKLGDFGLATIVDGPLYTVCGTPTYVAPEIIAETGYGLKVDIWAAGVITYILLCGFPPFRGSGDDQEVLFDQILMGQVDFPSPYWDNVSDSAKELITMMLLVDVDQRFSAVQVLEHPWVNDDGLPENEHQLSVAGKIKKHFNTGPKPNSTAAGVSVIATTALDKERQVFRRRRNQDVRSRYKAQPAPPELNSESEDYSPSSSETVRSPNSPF
RPS6KA6 KD2 (human), sequence (Q9UK32 whole entry, looked up): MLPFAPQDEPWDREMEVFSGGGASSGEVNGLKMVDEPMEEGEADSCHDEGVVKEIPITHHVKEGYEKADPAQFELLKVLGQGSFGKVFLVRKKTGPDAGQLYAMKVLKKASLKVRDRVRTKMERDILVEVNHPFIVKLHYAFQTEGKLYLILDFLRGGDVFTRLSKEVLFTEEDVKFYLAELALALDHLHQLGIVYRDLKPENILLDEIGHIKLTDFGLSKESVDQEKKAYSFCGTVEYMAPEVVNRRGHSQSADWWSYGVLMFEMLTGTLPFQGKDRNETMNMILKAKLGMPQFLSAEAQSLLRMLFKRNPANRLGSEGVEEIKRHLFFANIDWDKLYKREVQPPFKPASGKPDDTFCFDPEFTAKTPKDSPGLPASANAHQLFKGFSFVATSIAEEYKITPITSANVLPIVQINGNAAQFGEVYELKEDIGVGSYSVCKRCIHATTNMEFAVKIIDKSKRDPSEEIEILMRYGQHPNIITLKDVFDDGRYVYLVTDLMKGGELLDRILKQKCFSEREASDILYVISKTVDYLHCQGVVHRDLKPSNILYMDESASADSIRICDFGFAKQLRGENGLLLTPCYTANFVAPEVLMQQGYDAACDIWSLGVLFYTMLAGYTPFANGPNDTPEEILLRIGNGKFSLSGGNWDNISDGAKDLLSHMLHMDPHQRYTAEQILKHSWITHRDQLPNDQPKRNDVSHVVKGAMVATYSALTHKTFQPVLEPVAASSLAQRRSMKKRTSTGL
DCLK2 (human), sequence (Q8N568 whole entry, looked up): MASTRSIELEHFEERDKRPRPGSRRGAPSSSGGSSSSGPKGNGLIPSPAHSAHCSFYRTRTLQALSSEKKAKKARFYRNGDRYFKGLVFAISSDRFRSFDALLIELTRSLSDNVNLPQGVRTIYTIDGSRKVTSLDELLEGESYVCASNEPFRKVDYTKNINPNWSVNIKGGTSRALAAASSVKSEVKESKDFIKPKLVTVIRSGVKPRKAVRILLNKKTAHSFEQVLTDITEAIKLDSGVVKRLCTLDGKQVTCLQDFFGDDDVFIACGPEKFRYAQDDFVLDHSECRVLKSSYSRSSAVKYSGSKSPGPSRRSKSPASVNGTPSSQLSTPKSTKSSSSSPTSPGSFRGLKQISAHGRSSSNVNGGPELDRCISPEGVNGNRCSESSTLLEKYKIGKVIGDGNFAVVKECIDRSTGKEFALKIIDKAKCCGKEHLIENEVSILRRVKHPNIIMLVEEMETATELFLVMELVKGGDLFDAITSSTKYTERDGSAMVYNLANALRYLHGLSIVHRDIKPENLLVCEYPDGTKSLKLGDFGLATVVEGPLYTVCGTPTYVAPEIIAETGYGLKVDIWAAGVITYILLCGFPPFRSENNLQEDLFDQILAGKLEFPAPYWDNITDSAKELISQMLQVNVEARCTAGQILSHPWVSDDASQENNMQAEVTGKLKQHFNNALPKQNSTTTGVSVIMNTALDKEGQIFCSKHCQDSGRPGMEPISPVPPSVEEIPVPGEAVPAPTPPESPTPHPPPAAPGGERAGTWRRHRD
RPS6KA2 KD2 (human), sequence (Q15349 whole entry, looked up): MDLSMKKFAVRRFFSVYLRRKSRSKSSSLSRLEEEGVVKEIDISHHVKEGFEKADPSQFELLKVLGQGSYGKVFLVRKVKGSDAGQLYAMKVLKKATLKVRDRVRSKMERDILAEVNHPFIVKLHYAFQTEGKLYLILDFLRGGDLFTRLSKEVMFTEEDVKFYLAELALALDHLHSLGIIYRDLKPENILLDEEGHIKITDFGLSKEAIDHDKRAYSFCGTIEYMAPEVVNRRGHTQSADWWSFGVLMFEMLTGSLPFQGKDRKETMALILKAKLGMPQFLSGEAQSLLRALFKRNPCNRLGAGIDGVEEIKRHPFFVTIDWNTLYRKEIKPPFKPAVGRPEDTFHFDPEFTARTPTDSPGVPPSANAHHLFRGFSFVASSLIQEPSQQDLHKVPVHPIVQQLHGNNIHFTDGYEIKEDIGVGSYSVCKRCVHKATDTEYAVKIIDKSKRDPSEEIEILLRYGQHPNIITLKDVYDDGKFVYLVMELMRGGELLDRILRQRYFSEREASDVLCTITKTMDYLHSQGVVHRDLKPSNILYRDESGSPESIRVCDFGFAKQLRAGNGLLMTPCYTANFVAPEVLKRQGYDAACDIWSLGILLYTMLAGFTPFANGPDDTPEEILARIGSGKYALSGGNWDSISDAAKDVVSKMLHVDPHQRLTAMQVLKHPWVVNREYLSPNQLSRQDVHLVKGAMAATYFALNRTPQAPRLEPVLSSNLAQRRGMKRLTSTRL
STK33 (human), sequence (Q9BYT3 whole entry, looked up): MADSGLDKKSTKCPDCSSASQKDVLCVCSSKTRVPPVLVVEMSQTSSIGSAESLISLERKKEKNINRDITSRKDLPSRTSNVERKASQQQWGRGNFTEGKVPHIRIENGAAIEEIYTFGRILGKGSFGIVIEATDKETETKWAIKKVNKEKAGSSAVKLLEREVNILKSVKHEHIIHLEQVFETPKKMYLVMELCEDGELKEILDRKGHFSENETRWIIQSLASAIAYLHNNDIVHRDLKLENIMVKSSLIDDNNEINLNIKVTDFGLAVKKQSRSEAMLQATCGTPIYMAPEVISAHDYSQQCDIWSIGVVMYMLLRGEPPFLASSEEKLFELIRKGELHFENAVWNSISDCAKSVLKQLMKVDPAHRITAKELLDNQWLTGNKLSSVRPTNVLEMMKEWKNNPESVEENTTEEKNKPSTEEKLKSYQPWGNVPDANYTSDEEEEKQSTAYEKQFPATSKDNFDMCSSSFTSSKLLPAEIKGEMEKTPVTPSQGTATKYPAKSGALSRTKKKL

By IC50 is commonly meant the concentration needed to halve the response being measured. A low value points to inhibition by little substance. Broadly, the Kd is the concentration at which binding is half-saturated. High values mean weaker binding, low ones tighter binding. Turning to `COc1cc(C(=O)NC2CCN(C)CC2)ccc1Nc1ncc2c(n1)N(C1CCCC1)C(C)CC(=O)N2C` (configuration not stated), the IC50 in assay [1] was 5.04 µM. For the same compound, the kinase still bound, per cent of control in assay [2] was 1.4%; in assay [3], 5.8%; in assay [4] it was 19%; in assay [5], 32%; in assay [6], 22%; in [7] it was 17%. The kinase still bound, per cent of control amounted to 4% in assay [8]; 0.4% in [9]; 32% in assay [10]; 3.6% in [11]; 26% in assay [12]; 17% in assay [13]. Further, the kinase still bound, per cent of control in assay [14] is 6.2%; in assay [15], 22%; in assay [16], 6.2%; in [17], 12%; in [18], 19%; in assay [19], 2.8%. Moreover, the kinase still bound, per cent of control stood at 31% in [20]; 18% in assay [21]; 29% in assay [22]; 0% in assay [23]; 26% in assay [24]; 4.6% in [25]. Further, the kinase still bound, per cent of control in assay [26] was 24%; in assay [27], 13%; in assay [28] it was 34%; in [29], 21%; in [30] it was 3.8%. The compound also had a Kd in assay [25] of 1.43 µM.
As for `Nc1cnc(/C=C/c2ccc(-c3ccc(S(N)(=O)=O)cc3)o2)cn1`, the kinase still bound, per cent of control came out at 31% in [31], 31% in [32], 28% in assay [26] and 34% in assay [28].
As for `COc1cc(N2CCC(N3CCN(C)CC3)CC2)ccc1Nc1ncc2c(n1)N(C1CCCC1)C(C)CC(=O)N2C` (configuration not stated), the kinase still bound, per cent of control in assay [33] worked out at 34%; in assay [2], 5.6%; in [3], 16%; in [4], 30%; in [8], 5.2%; in [9], 1.2%. The kinase still bound, per cent of control in [10] worked out at 29%; in assay [34], 32%; in assay [11], 9%; in assay [12], 33%; in assay [14], 5%; in assay [35] it was 30%. Besides, the kinase still bound, per cent of control in assay [17] came to 33%; in assay [18], 7.2%; in assay [19] it was 11%; in assay [36], 26%; in assay [23], 5.9%; in assay [37] it was 27%. The kinase still bound, per cent of control was found to be 2% in assay [25]; 33% in assay [26]; 4.2% in assay [27]; 24% in assay [38]; 34% in assay [39]; 1.6% in assay [30].
Consider `CC(C)Oc1cc(N2CCN(C)CC2)ccc1Nc1ncc2c(n1)N(C)c1ccccc1C(=O)N2`, for which the kinase still bound, per cent of control in assay [40] amounted to 10%; in [4], 5.3%; in assay [41], 10%; in assay [42] it was 22%; in [8], 1.2%; in assay [43], 2.6%. In addition, the kinase still bound, per cent of control in assay [44] is 14%; in [45], 6.5%; in [15] it was 14%; in [46], 2.4%; in assay [17], 21%; in assay [47], 0.6%. For the same compound, the kinase still bound, per cent of control in assay [48] is 29%; in assay [49] it was 2.2%; in assay [50] it was 26%; in assay [51], 2.1%; in assay [52], 8.1%.
The term residual activity denotes the signal under treatment as a percentage of the control signal. As to `CNS(=O)(=O)c1ccc(-c2ccc(C=C3C(=O)NC(=O)NC3=O)o2)cc1`, in [53], the residual activity was 28%.
